Read-outs that look alike come from different tables or passages of the source.
What was measured:
soy bean plants = assay: Plant compatibility test using soy bean plants; type: in vivo; details: soy bean young plants sprayed at 500 ppm, evaluated 6 days after application; 0% no damages, 100% totally damaged
Method: [table] To produce a suitable preparation of active compound, 1 part by weight of active compound is mixed with the stated amounts of solvent and emulsifier, and the concentrate is diluted with water to the desired concentration. Young plants are sprayed with the preparation of active compound at the stated application rate. The plants are then placed in a greenhouse at approximately 21° C. and a relative atmospheric humidity of approximately 80%. The test is evaluated 6 days after application and comprises plant damages like leaf deformation, chlorosis, necrosis, shoot damage or stunting. 0% means no damages are observed, while 100% means that the plants are totally damaged.

[1] = Hydrolysis stability test in homogeneous aqueous solution; type: physicochemical; details: 50° C., 24 hours, first order degradation assumed
Method: To produce a suitable preparation of active compound for the hydrolysis stability test, a 1000 ppm stock solution (1 mg/mL) of active compound in acetonitrile is prepared. Three aliquots of […] are pipetted into HPLC vials and diluted with 750 μL acetonitrile. In each vial 850 μL of the appropriate buffer solution (pH4, pH7 and pH9, CertiPUR, Fa. Merck) is added. The buffer containing HPLC vials are incubated in a heated sample tray at 50° C. for 24 hours. The amount A of the active compound is analyzed by HPLC (UV-peak areas at 210 nm) at eight points in time t: 0 min, 140 min, 350 min, 560 min, 770 min, 980 min, 1190 min, 1400 min. The half-life time (T1/2) of each active compound is calculated via linear regression by using the following equations (first order degradation assumed): [formula] [formula]

[2] = Log P by HPLC on reversed phase columns (EEC directive 79/831 Annex V.A8); type: physicochemical; details: reversed phase HPLC column, LC-UV
Method: Measurement of Log P values was performed according to EEC directive 79/831 Annex V.A8 by HPLC (High Performance Liquid Chromatography) on reversed phase columns with the following methods: • ^[a] Log P value is determined by measurement of LC-UV, in an acidic range, with 0.1% formic acid in water and acetonitrile as eluent (linear gradient from 10% acetonitrile to 95% acetonitrile). • ^[b] Log P value is determined by measurement of LC-UV, in a neutral range, with 0.001 molar ammonium acetate solution in water and acetonitrile as eluent (linear gradient from 10% acetonitrile to 95% acetonitrile). […] Lambda-max-values were determined using UV-spectra from 200 nm to 400 nm and the peak values of the chromatographic signals.

[3] = Photolysis stability test; type: physicochemical; details: dried film in MTP, irradiated at 30° C. and 480 W/m^2 (SUNTEST), first order degradation assumed
Method: The stability towards photolysis of the phenylamidines described in the prior art is good but an improved stability towards photolysis may be an advantage as it could offer a longer lasting efficacy when applied to plants by foliar application. The improved stability towards photolysis was proven by a […] stability test as described below: To produce a suitable preparation of active compound for the photolysis stability test, a 1000 ppm stock solution (1 mg/mL) of active compound in acetonitrile is prepared. Aliquots of […] of this stock solution are pipetted in three wells of a Bio-one microtiter plate (MTP) UVStar 96 (Fa. Greiner, Art. No. 655801). The MTP is dried overnight in the dark and then irradiated at 30° C. and 480 W/m^2 with a UV irradiation device SUNTEST XLS+ or SUNTEST CPS (Fa. Atlas). The amount A of the active compound is analyzed by HPLC (UV-peak areas at 210 nm) at five points in time t: 0 h, 2 h, 4 h, 6 h, 24 h by using the following method: 200 μL acetonitrile is added in the respective well of the MTP and the MTP is sealed with a Bio-one sealing foil, viewseal 80/140 mm (Fa. Greiner, Art. No. 676070). The MTPs are sonicated for 3 minutes and analysed by HPLC. The half-life time (T1/2) of each active compound is calculated via linear regression by using the following equations (first order degradation assumed): […]

[4] = acidic range, 0.1% formic acid in water and acetonitrile as eluent, read-out: LogP [a]
[5] = neutral range, 0.001 molar ammonium acetate solution in water and acetonitrile as eluent, read-out: LogP [b]

Row | Structure (SMILES) | half-life at 59 µg/mL ([1]; buffer pH 7/acetonitrile, read-out: T1/2 (pH 7) (converted)) | half-life at 59 µg/mL ([1]; buffer pH 9/acetonitrile, read-out: T1/2 (pH 9) (converted)) | chromatographic logP [2, 4] | half-life [3] | chromatographic logP [2, 5] | Necrosis in % (soy bean plants)
1 | CCN(C)/C=N/c1cc(C)c(Oc2ccccc2)cc1C [Compound no. 1 known from WO2008/110313, reference compound] |  |  |  |  |  | 90%
2 | CCN(C)C=Nc1cc(C)c(Oc2ccccc2)cc1F [Example I-03, N-ethyl-N′-(2-fluoro-5-methyl-4-phenoxyphenyl)-N-methylimidoformamide] |  |  | 1.55 |  | 3.97 | 
3 | Cc1cc([N+](=O)[O-])c(Br)cc1Oc1ccccc1 [VI-02, 1-bromo-4-methyl-2-nitro-5-phenoxybenzene] |  |  | 4.51 |  |  | 
4 | Cc1cc(N)c(Br)cc1Oc1ccccc1 [VIII-02, 2-bromo-5-methyl-4-phenoxyaniline] |  |  | 3.66 |  | 3.65 | 

Second part, led by results:

Row | half-life at 59 µg/mL ([1]; buffer pH 7/acetonitrile, read-out: T1/2 (pH 7) (converted)) | half-life at 59 µg/mL ([1]; buffer pH 9/acetonitrile, read-out: T1/2 (pH 9) (converted)) | chromatographic logP [2, 4] | half-life [3] | chromatographic logP [2, 5] | Structure (SMILES) | Necrosis in % (soy bean plants)
5 | 45 h | 40 h | 1.6 | > 200 h |  | CCN(C)/C=N/c1cc(C)c(Oc2ccccc2)cc1Cl [Example I-01, N′-(2-chloro-5-methyl-4-phenoxyphenyl)-N-ethyl-N-methylimidoformamide] | 50%
6 |  |  | 1.61 |  | 4.67 | CCN(C)/C=N/c1cc(C)c(Oc2ccccc2)cc1Br [Example I-02, N′-(2-bromo-5-methyl-4-phenoxyphenyl)-N-ethyl-N-methylimidoformamide] | 10%

Source: patent publication US10912297B2, “Phenoxyhalogenphenylamidines and the use thereof as fungicides” (priority 2015, dated 2021)
